Reference: US12644099B2, “Methods for making T cell compositions” (2seventy bio, Inc., priority 2014, dated 2026)
Entries after “also recorded” stand apart in the source; their conditions may differ.

What was measured:
T cells [1] = test: T cell proliferation (CellTrace Violet dilution, flow cytometry) of PBMC-derived T cells cultured with AKT inhibitor; type: cell-based
Protocol: The purpose of this experiment was to determine the effect of Akt inhibitors on T cell proliferation. The impact of MK-2206 (Selleckchem) on T cell proliferation was assessed by measuring T cell division. Peripheral blood mononuclear cells (PBMC) are a heterogeneous cellular population containing T cells. PBMC were harvested from normal donors and labeled with a fluorescent dye (CellTrace® Violet, Molecular Probes), whose intensity is progressively diluted by a factor of two with each cell division. The labeled PBMCs were used as a source of cells for T cell expansion. […] The impact of MK-2206 on cell division was assayed by evaluating CellTrace Violet dilution with flow cytometry after the addition of 0.025 μM, 0.074 μM, 0.222 μM, 0.67 μM, or 2.0 μM, MK-2206 to the T cultures at day 0. […] A pairwise t test was performed on all day seven cultures; (each concentration of MK-2206 was compared to 0 μM MK-2206: the cultures were not statistically different at the p≤0.05 level).

T cells [2] = test: CD62L expression on T cells treated with MK-2206; type: cell-based
Protocol: The purpose of this experiment was to determine the effect of Akt inhibitors on T cell markers for T cell potency. The impact of MK-2206 (Selleckchem) on T cell potency was assessed by measuring CD62L expression in the T cell cultures manufactured in Example 1. Mouse models have shown that CD62L expression identifies potent T cells; T cells with greater anti-tumor efficacy after adoptive transfer. […] FIG. 2. A pairwise T test was performed on all day seven cultures (each concentration of MK-2206 was compared to 0 μM MK-2206: *p<0.05, **p<0.01).

anti-BCMA CAR T cells = test: CD62L expression on anti-BCMA CAR T cells by flow cytometry at the end of culture with inhibitor; type: cell-based; conditions: ten days of culture with IL-2 and optimized dose of inhibitor; three normal donors
Protocol: CAR T cells were cultured with either MK-2206 or triciribine phosphate—TCN (AKT inhibitors) or ZSTK474 (PI3K inhibitor). CAR T cells specific for B cell maturation antigen (BCMA) were used in these set of experiments. CAR T cell cultures were performed using a system directly scalable to large clinical manufacturing processes. […] 2×10^8 transducing units of lentivirus encoding anti-BCMA CARs were added one day after culture initiation. […] At the end of culture, the anti-BCMA CAR T cells were interrogated for phenotype. Expression of CD62L on anti-BCMA CAR T cells was assessed by flow cytometry at the end of culture. Anti-BCMA CAR T cells were specifically identified using recombinant human BCMA-IgG Fc conjugated to PE. CD62L expression was determined with a co-stain using an antibody specific to CD62L. […] (FIG. 3).

Daudi tumor = test: Anti-tumor activity of cultured anti-BCMA CAR T cells in aggressive Daudi tumor model; type: in vivo
Description: Daudi tumor cells express a low level of BCMA protein and can be effectively treated using anti-BCMA CAR T cells.

[3] = test system: multiple myeloma tumors (RPMI-8226); test: Anti-tumor activity of cultured anti-BCMA CAR T cells in sub cutaneous multiple myeloma tumor model; type: in vivo, mice; conditions: 100 mm^3 sub cutaneous RPMI-8226 tumors; 1×10^6 CAR-positive cells infused
Protocol: Anti-BCMA CAR T cells treated with MK-2206, TCN, or ZSTK474 as described in Example 3 were tested to evaluate whether increased CD62L expression was associated with increased anti-tumor activity. […] Animals with 100 mm^3 sub cutaneous multiple myeloma tumors (RPMI-8226) were infused with equivalent CAR T cell doses (1×10^6 CAR-positive cells).

RPMI-8226 = test: Persistence of anti-BCMA CAR T cells: RPMI-8226 tumor rechallenge; type: in vivo, mice; conditions: rechallenged 13 days later with RPMI-8226 on the opposite flank after complete regression
Protocol: Persistence of anti-BCMA CAR T cells was evaluated by re-challenging tumors in mice that had complete regression.

Compound	T cell division / proliferation compared to vehicle or non-treated controls (T cells [1]; seven days of culture, 0.025-2.0 μM MK-2206 with IL-2, pairwise t test p≤0.05)	T cell division / proliferation compared to no treatment control (T cells [1]; three days of culture, 0.025-2.0 μM MK-2206 with IL-2, CD3 and CD28 antibodies)	CD62L expression on T cells compared to no treatment control (T cells [2]; seven days of culture in the presence of IL-2, all concentrations tested)	CD62L expression on T cells compared to no treatment control (T cells [2]; three days of culture with MK-2206)	CD62L expression on anti-BCMA CAR T cells compared to cultures with IL-2 alone (anti-BCMA CAR T cells)	anti-tumor activity (Daudi tumor progression) of anti-BCMA CAR T cells cultured with the agent (Daudi tumor)	anti-tumor activity of anti-BCMA CAR T cells cultured with the agent [3]	tumor outgrowth / engraftment after rechallenge in animals treated with anti-BCMA CAR T cells cultured with the agent (RPMI-8226)
NC1(c2ccc(-c3nc4ccn5c(=O)[nH]nc5c4cc3-c3ccccc3)cc2)CCC1 [MK-2206]	no statistically significant differences in T cell division; also recorded: not substantially different	did not substantially decrease T cell division; also recorded: only slightly decreased	significantly increases CD62L expression at all concentrations; also recorded: significant higher levels of CD62L expression	not substantially different	significantly higher CD62L expression	complete tumor regression		
CN1N=C(N)c2cn([C@@H]3O[C@H](COP(=O)(O)O)[C@@H](O)[C@H]3O)c3ncnc1c23 [TCN, triciribine phosphate]					not		did not show an anti-tumor response; also recorded: completely abolished any anti-tumor responses	
FC(F)c1nc2ccccc2n1-c1nc(N2CCOCC2)nc(N2CCOCC2)n1 [ZSTK474]					significantly higher CD62L expression	complete tumor regression		none of the animals treated with ZSTK474-cultured anti-BCMA CAR T cells had any evidence of tumor engraftment
